Source: patent publication US20140065103A1 (VERTEX PHARMACEUTICALS INCORPORATED, priority 2010, published 2014)
Like-named read-outs stand apart in the source and are kept apart here.

How the values were obtained:
[1] = tested on: Huh-7 ET, Molt-4, DU-145, Hep-G2 and SH-SY5Y cells; assay: [3H]Thymidine incorporation assay (cytotoxicity, CC50); details: [3H]thymidine incorporation; cell line not given
[2] = tested on: HCV sub-genomic replicon of genotype 1a in replicon cell line W11.8; assay: microbe, parasite or virus in culture; assay type: cell-based, Hepatitis C virus; details: read-out: HCV-Replicon-ELISA-1a IC50
[3] = tested on: HCV replicon (genotype 1b) in Huh7 hepatoma cell line ET; assay: microbe, parasite or virus in culture; assay type: cell-based, Hepatitis C virus; details: read-out: HCV-Replicon-1b_IC50
[4] = [3H]Thymidine incorporation assay (cytotoxicity, CC50); details: human

CC(C)C#Cc1cc(N(C(=O)[C@H]2CC[C@H](C)CC2)[C@H]2CC[C@H](O)CC2)c(C(=O)O)s1 [Compound 4, 5-(3-methylbut-1-ynyl)-3-[(4-trans-hydroxycyclohexyl)-(4-trans-methylcyclohexanecarbonyl)amino]thiophene-2-carboxylic acid]
CC50 [1]: 10000 to 100000 nM | IC50 [2]: < 100 nM | IC50 [3]: < 100 nM

CCO[C@H]1CC[C@H](N(c2cc(C#CC(C)(C)C)sc2C(=O)O)C(=O)[C@H]2CC[C@H](C)CC2)CC1 [Compound 35, 5-(3,3-Dimethylbut-1-yn-1-yl)-3-((N-4-trans-ethoxycyclohexyl)-4-trans-methylcyclohexanecarboxamido)thiophene-2-carboxylic acid]
CC50 [1]: 10000 to 100000 nM | IC50 [2]: 100 to 1000 nM | IC50 [3]: < 100 nM

CC(C)(C)C#Cc1cc(N(C(=O)[C@H]2CC[C@H](C)CC2)[C@H]2CC[C@H](OC3CC3)CC2)c(C(=O)O)s1 [Compound 38, 5-(3,3-Dimethylbut-1-yn-1-yl)-3-((N-4-trans-cyclopropoxycyclohexyl)-4-trans-methylcyclohexanecarboxamido)thiophene-2-carboxylic acid]
CC50 [1]: 10000 to 100000 nM | IC50 [2]: 100 to 1000 nM | IC50 [3]: < 100 nM

CC(C)(C)C#Cc1cc(N(C(=O)c2ccc(Cl)cc2F)[C@H]2CC[C@H](O)CC2)c(C(=O)O)s1 [Compound 91, 3-[(4-Chloro-2-fluoro-benzoyl)-(trans-4-hydroxy-cyclohexyl)-amino]-5-(3,3-dimethyl-but-1-ynyl)-thiophene-2-carboxylic acid]
CC50 at 72 h [4]: 10000 to 100000 nM | IC50 ([3]; Hepatitis C virus, Huh-7, 96 h): 100 to 1000 nM

CC(C)C#Cc1cc(N(C(=O)[C@H]2CC[C@H](C)CC2)C2CCN(C(=O)CCCCCN)CC2)c(C(=O)O)s1 [Compound 95, 3-((trans-4-Methylcyclohexanecarbonyl)-(1-(6-amino-hexanoyl)-piperidin-4-yl)amino)-5-(3-methylbut-1-ynyl)thiophene-2-carboxylic acid]
CC50 at 72 h [4]: 10000 to 100000 nM | IC50 ([3]; Hepatitis C virus, Huh-7, 96 h): 100 to 1000 nM

Methyl-5-(3,3-dimethylbut-1-yn-1-yl)-3-(trans-4-methyl-N-(cis-3-((dimethylamino)methyl)cyclobutyl)cyclohexanecarboxamido)thiophene-2 carboxylate [Compound 65]
CC50 [1]: 10000 to 100000 nM | IC50 [2]: < 100 nM | IC50 [3]: < 100 nM
